Reference: US20150320709A1, “METHODS AND COMPOSITIONS FOR FACILITATING WEIGHT LOSS BY ADMINISTRATION OF THYROID HORMONES” (priority 2011, published 2015)

Experiment: Circulating thyroid hormone labs (FT3, FT4, rT3, TSH) in weight loss program patients on thyroid hormone treatment
Assay type: in vivo, human
Text: FIG. 1 depicts hormonal responses to a hypocaloric state with subsequent treatment. Note: Time frames and shapes of response curves are approximated. Levels of all four hormones are normal before the diet (Time A). At time between time points B and D, TSH is dropping slightly to signal the thyroid gland to make less thyroid hormone. This drop is the mechanism to decrease metabolism in the hypocaloric state. At point C, free T3 begins to drop as rT3 increases. Also at time point C, different observations have been reported for changes in FT4: in our experience, FT4 also drops as indicated on the graph. In the literature, some report no change, whereas others report an increase in FT4. By the time of the blood sampling (time E), in our experience, patients whose FT3 and FT4 have dropped to the low end of normal (with possible above normal rT3 levels) are those experiencing symptoms of low thyroid. They may have any of the following symptoms: feeling cold, cold hands and feet, elevated diastolic blood pressure secondary to vasoconstriction, fatigue, depression, constipation, hair loss, dry skin, insomnia, as well as others. They have often hit a plateau of weight loss even though they have continued to maintain their hypocaloric diet and exercise program. At point F, we begin treatment with thyroid hormone (for example, T4 with T3, T3 alone, T3 with T2 and T4, or T2 alone. Between points F and G, FT3 and rT3 (and FT4 if T4 was administered) are returning to more normal levels, while TSH plummets, often to undetectable levels. At time point H, symptoms of low thyroid are resolved, the patient has no symptoms of hyperthyroidism, and if rT3 had risen and was treated appropriately, rT3 decreased.
The first patient example is a person, 5′2″, weight 268 lbs, body mass index (BMI) 49 (nl 19-24; overweight 25-29; obesity≧30). Baseline blood pressure was 110/74, blood sugar (BS) was 153 mg/dL 10 days after their first visit. Their medical problems at baseline included obesity, type 2 diabetes mellitus (DM2), high blood pressure (HTN), fatigue, depression, and asthma. Their medications included glipizide 10 mg daily, amitriptyline 50 mg daily, metoprolol 50 mg daily, furosemide 40 mg daily, potassium chloride, lisinopril 10 mg daily, Advair Discus 500/50 twice daily (bid), and montelukast 10 mg daily. They were started on our comprehensive program. Five months after starting their weight loss treatment, they developed symptoms of hypothyroidism with constipation and fatigue. They had lost 28 lbs by this time and was having difficulty losing more weight even though they were eating less than they were before their weight loss treatment began. At the start of treatment, their FT4 was 0.9 ng/dL (nl 0.7-1.48). At the time of their low thyroid symptoms, their FT3 was 2.9 pg/mL (nl 1.71-3.71) and their FT4 was 0.91 ng/dL (nl 0.7-1.48). They were then treated with thyroid hormone (desiccated thyroid with a ratio of T4:T3 of about 4:1) at 60 mg daily for 6 days to acclimate, then increased to 120 mg daily. […] After two years on their weight loss treatment, their weight was 231 lbs. […] We tested for rT3 at this point. Their labs on the 150 mg dose of desiccated thyroid were: rT3 394 pg/mL (nl 90-350), FT3 3.94 pg/mL (nl 1.71-3.71), and FT4 1.24 ng/dL (nl 0.7-1.48). The task of bringing down their rT3 was then addressed. Over a period of a few months, their desiccated thyroid hormone was discontinued and instead the patient was given gradually increasing doses of T3 only, starting at 20 mcg daily and gradually increasing the T3 to 60 mcg bid. Five months after starting on T3 with increasing doses, their weight had dropped to 209 lbs. Their BP was 118/66 mmHg with pulse of 74 on lisinopril 10 mg daily, metoprolol 50 mg bid, and furosemide 40 mg daily. Instead of glipizide, they were taking metformin 500 mg bid. […] Their most recent labs on 60 mcg bid of T3 were FT3 3.8 pg/mL (nl 1.71-3.71), FT4 0.64 ng/dL (nl 0.7-1.48) and rT3 137 pg/mL (nl 90-350). Four months prior to this visit their BS was 125 mg/dl. […]

SMILES: N[C@@H](Cc1cc(I)c(Oc2ccc(O)c(I)c2)c(I)c1)C(=O)O [T3, (2S)-2-amino-3-[4-(4-hydroxy-3-iodo-phenoxy)-3,5-diiodo-phenyl]propanoic acid]
- FT4 (Patient Example 1, on 60 mcg bid, nl 0.7-1.48): 0.64 ng/dL
- FT3 (Patient Example 1, on 60 mcg bid, nl 1.71-3.71): 3.8 pg/mL
- rT3 (Patient Example 1, on 60 mcg bid, nl 90-350): 137 pg/mL
- FT4 (Patient Example 2, T3 only, 25 mcg bid, nl 0.93-1.70): 0.67 ng/dL
- FT3 (Patient Example 2, T3 only, 25 mcg bid, nl 2.2-4.0): 2.5 pg/mL
- rT3 (Patient Example 2, T3 only, 25 mcg bid, nl 90-350): 193 pg/mL
- FT4 (Patient Example 4, T3 50 mcg 2 PO q am and 1 PO 8-10 hours later, normal range 0.93-1.7): less than 0.1 ng/dL
- FT3 (Patient Example 4, T3 50 mcg 2 PO q am and 1 PO 8-10 hours later, normal range 2.2-4.0): 7.0 pg/mL
- rT3 (Patient Example 4, T3 50 mcg 2 PO q am and 1 PO 8-10 hours later, normal range 90-350): less than 15 pg/mL
